From US20240124465A1, “MOLECULES AND METHODS RELATED TO TREATMENT OF DISORDERS ASSOCIATED WITH JAK-2 SIGNALING DYSFUNCTION” (ST. JUDE CHILDREN'S RESEARCH HOSPITAL, priority 2020, published 2024)

Tests used:
Assay type in all cases: cell-based
[1] = system: MHH-CALL-4 cells; assay: Cytotoxicity assay (resazurin, 72 hours); parameters: AUC: unit not given beside the values; details: for EC50: MHHCALL4, resazurin; for AUC: area under the dose-response curve
Method in brief: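 Cells grown in RPMI1640 with 10% FBS, 2×10⁵ per well, were exposed to pin-transferred compounds in triplicate for 72 h at 37 °C, 5% CO2. Viability was read after 4 h resazurin incubation. Dose-response AUC was calculated per compound; selected data were fitted by non-linear regression.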

[2] = target: T1, JAK1 (Homo sapiens, UniProt P23458); assay: Western blot assay, JAK1 protein degradation; details: MHH-CALL-4 cells, vehicle control = 100%
T1 construct: endogenous in cells; host or cells: MHH-CALL-4
T1 sequence (P23458 whole entry): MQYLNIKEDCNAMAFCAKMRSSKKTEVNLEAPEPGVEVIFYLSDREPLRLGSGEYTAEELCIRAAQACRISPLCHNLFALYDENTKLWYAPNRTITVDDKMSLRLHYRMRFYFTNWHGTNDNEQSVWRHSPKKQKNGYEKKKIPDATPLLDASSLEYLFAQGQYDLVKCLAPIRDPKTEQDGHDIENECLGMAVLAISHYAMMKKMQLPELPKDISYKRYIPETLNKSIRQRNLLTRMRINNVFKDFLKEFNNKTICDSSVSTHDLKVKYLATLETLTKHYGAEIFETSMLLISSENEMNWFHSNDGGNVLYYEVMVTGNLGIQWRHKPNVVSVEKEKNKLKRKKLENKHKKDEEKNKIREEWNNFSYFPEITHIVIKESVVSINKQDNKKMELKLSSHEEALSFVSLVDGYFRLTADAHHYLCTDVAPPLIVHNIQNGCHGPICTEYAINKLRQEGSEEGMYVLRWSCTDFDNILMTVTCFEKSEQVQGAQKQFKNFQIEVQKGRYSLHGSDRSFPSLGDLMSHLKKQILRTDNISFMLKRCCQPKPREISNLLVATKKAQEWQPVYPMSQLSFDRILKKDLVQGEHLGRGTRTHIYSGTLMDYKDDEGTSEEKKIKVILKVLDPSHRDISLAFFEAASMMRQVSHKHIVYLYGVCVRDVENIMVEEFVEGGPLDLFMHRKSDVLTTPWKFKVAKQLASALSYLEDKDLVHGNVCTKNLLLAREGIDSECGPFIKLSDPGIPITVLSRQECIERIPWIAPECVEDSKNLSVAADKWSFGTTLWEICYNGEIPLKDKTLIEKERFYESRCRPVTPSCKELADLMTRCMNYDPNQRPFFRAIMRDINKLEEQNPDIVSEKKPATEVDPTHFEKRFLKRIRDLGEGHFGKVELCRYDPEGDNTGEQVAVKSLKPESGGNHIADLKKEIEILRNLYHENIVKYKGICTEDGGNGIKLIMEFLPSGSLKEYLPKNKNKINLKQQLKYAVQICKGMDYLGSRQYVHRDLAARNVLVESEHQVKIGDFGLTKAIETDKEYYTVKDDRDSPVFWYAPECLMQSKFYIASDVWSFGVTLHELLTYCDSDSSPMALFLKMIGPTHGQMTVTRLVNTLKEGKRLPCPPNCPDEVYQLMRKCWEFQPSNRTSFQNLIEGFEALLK
Method: (§1) Western blot assay: MHH-CALL-4 Cells were washed twice with ice-cold PBS and lysed in RIPA lysis buffer (Sigma) freshly supplemented with Halt™ Protease Inhibitor Cocktail (ThermoFisher) for 15 minutes on ice. The cell pellet was removed by centrifugation at 13,000 g at 4° C. for 15 minutes. Protein concentration was measured by BCA assay (Thermo Fisher Scientific). Proteins were denatured in NuPAGE LDS 4× sample buffer supplemented with reducing agents (Invitrogen). Typically, 10-20 μg of total protein was loaded per lane on a 4%-12% NUPAGE Bis-Tris gradient gel (Invitrogen) and analyzed by standard immunoblotting and imaged using Li—COR Odyssey CLx (LI-COR Biotechnology, Lincoln, NE). To access the protein degradation, the signal of target protein was normalized by the signal of ACBT and the signal of vehicle control was set as 100%. Primary antibodies used were: JAK1 (Cell Signaling #3332S), JAK2 (#3230S), JAK3 (#8827S), TYK2 (#9312S), GSPT1 (#14980S), CRBN (#71810S), IKZF1 (Santa Cruz Biotechnology, SC-398265) and ACBT (Santa Cruz Biotechnology, SC-47778).

[3] = system: JAK2; assay: Western blot assay, JAK2 protein degradation; details: MHH-CALL-4 cells, vehicle control = 100%
Method in brief: (§2)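 MHH-CALL-4 cells were lysed in RIPA buffer with protease inhibitors, and 10-20 μg total protein per lane was resolved on 4%-12% Bis-Tris gels and immunoblotted. Target band signal was normalized to ACBT and expressed relative to vehicle control set at 100%.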

[4] = target: T2, JAK3 (Homo sapiens, UniProt P52333); assay: Western blot assay, JAK3 protein degradation; details: MHHCALL4; 100 nM, 24 h; MHH-CALL-4 cells; vehicle control = 100%; read-out: Target Protein Degradation (% remaining at 100 nM, 24 h) JAK3
T2 construct: endogenous in cells; host or cells: MHH-CALL-4
T2 sequence (P52333 1-1124): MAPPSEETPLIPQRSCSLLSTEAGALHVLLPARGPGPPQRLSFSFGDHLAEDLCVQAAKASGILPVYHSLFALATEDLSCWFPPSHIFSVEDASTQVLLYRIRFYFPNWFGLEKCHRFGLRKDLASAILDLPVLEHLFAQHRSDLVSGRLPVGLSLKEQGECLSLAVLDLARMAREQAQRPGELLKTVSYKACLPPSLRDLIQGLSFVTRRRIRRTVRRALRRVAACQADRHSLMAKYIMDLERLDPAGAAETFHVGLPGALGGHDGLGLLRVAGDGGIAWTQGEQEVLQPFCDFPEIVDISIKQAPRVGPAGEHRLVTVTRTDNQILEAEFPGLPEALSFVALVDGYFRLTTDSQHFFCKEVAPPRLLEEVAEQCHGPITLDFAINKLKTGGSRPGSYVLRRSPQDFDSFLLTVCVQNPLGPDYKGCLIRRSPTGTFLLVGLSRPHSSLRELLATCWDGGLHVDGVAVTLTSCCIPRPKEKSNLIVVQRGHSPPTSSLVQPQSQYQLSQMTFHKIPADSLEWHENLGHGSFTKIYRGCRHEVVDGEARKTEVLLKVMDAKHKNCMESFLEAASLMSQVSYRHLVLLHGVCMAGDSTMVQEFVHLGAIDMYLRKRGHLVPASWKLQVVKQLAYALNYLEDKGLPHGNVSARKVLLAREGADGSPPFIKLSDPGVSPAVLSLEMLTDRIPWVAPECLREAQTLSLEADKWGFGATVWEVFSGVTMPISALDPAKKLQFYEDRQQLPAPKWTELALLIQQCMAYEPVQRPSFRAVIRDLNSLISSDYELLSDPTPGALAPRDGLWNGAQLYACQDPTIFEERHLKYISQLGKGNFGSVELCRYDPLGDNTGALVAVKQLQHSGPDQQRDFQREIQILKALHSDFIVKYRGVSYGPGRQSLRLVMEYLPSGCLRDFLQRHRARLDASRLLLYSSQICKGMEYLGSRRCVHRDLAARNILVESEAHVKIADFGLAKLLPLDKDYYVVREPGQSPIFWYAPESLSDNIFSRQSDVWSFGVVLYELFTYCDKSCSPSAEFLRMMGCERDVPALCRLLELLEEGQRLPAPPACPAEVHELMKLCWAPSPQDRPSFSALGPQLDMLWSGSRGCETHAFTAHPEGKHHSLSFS
Method in brief: as §2

[5] = target: T3, GSPT1 (Homo sapiens, UniProt P15170); assay: Western blot assay, GSPT1 neosubstrate degradation; details: MHHCALL4; 100 nM, 24 h; MHH-CALL-4 cells; vehicle control = 100%
T3 construct: endogenous in cells; host or cells: MHH-CALL-4
T3 sequence (P15170 whole entry): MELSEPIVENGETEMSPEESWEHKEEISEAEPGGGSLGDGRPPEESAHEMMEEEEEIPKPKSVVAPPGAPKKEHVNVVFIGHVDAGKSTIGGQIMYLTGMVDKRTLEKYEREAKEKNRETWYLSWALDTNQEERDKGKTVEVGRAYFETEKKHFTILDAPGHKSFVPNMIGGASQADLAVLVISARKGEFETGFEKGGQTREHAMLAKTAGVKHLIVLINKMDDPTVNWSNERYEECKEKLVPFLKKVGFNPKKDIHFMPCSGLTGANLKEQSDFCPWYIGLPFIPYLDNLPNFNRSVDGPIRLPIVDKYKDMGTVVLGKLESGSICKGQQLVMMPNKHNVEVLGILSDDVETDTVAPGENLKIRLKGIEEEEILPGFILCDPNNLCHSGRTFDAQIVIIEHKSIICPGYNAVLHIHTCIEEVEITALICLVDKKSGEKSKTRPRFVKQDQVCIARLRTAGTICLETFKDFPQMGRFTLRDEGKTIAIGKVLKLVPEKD
Method in brief: as §2

[6] = target: T4, TYK2 (Homo sapiens, UniProt P29597); assay: Western blot assay, TYK2 protein degradation; details: MHH-CALL-4 cells, vehicle control = 100%
T4 construct: endogenous in cells; host or cells: MHH-CALL-4
T4 sequence (P29597 whole entry): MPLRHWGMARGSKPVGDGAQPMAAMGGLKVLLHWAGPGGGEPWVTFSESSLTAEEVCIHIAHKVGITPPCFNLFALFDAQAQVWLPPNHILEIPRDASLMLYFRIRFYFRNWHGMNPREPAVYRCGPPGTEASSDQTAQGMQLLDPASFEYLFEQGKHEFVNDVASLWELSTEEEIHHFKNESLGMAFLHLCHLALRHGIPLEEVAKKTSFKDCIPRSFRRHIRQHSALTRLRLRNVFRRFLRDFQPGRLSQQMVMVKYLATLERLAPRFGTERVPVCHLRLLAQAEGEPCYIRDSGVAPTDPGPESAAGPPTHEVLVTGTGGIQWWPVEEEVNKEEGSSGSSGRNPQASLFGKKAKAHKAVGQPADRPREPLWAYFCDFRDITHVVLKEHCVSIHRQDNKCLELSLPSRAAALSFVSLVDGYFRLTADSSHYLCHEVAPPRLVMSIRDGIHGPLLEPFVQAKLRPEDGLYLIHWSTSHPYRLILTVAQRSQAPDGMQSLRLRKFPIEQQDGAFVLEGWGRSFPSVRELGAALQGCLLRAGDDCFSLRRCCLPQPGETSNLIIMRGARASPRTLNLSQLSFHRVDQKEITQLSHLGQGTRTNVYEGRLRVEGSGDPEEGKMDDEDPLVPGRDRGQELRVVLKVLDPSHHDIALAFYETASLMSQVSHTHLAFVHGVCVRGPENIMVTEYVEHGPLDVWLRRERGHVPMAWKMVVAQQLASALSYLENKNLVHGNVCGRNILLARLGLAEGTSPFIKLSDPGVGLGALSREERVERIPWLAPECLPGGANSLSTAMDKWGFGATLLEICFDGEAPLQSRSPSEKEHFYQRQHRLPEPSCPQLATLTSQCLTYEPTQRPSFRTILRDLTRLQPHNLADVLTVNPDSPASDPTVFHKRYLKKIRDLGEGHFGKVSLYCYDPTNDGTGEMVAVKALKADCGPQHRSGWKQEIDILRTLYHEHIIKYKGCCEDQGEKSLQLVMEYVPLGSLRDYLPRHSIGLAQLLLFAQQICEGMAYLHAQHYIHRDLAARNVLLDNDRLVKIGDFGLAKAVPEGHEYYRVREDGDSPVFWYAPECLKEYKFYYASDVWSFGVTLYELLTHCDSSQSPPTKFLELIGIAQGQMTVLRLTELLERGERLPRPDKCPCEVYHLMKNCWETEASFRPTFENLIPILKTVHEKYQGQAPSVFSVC
Method: as §1

| SMILES | EC50 [1] | AUC [1] | Target Protein Degradation (% remaining at 100 nM, 24 h) JAK1 [2] | Target Protein Degradation (% remaining at 100 nM, 24 h) JAK2 [3] | remaining activity at 0.1 µM [4] | remaining activity at 0.1 µM [5] | Target Protein Degradation (% remaining at 100 nM, 24 h) TYK2 [6] |
| --- | --- | --- | --- | --- | --- | --- | --- |
| N#CC[C@H](C1CCCC1)n1cc(-c2nc(Nc3ccc(C(=O)NCCCCOc4ccc(C5CCC(=O)NC5=O)cc4)cc3)nc3[nH]ccc23)cn1 (stereo partly shown) [Compound 36] | 5.4 nM | 129 | 118 % remaining | 32 % remaining | 63% | 94% | – |
| CCCn1cc(-c2nc(Nc3ccc(C(=O)NCCN4CCN(c5ccc6c(c5)C(=O)N(C5CCC(=O)NC5=O)C6=O)CC4)cc3)nc3[nH]ccc23)cn1 (stereo not shown) [Compound 39, N-(2-(4-(2-(2,6-dioxopiperidin-3-yl)-1,3-dioxoisoindolin-5-yl)piperazin-1-yl)ethyl)-4-((4-(1-propyl-1H-pyrazol-4-yl)-7H-pyrrolo[2,3-d]pyrimidin-2-yl)amino)benzamide] | 33.1 nM | 221 | 126 % remaining | 61 % remaining | 53% | 84% | – |
| CCS(=O)(=O)N1CC(CC#N)(n2cc(-c3nc(Nc4ccc(C(=O)NCCN5CCN(c6cccc(C7CCC(=O)NC7=O)c6)CC5)cc4)nc4[nH]ccc34)cn2)C1 (stereo not shown) [Compound 40, 4-((4-(1-(3-(cyanomethyl)-1-(ethylsulfonyl)azetidin-3-yl)-1H-pyrazol-4-yl)-7H-pyrrolo[2,3-d]pyrimidin-2-yl)amino)-N-(2-(4-(3-(2,6-dioxopiperidin-3-yl)phenyl)piperazin-1-yl)ethyl)benzamide] | 1.9 nM | 139 | 114 % remaining | 36 % remaining | 56% | 88% | – |
| CCS(=O)(=O)N1CC(CC#N)(n2cc(-c3nc(Nc4ccc(C(=O)NCCCN5CCN(c6cccc(C7CCC(=O)NC7=O)c6)CC5)cc4)nc4[nH]ccc34)cn2)C1 (stereo not shown) [Compound 42, 4-((4-(1-(3-(cyanomethyl)-1-(ethylsulfonyl)azetidin-3-yl)-1H-pyrazol-4-yl)-7H-pyrrolo[2,3-d]pyrimidin-2-yl)amino)-N-(3-(4-(3-(2,6-dioxopiperidin-3-yl)phenyl)piperazin-1-yl)propyl)benzamide] | 836 nM | 139 | 128 % remaining | 48 % remaining | 71% | 76% | – |
| CCS(=O)(=O)N1CC(CC#N)(n2cc(-c3nc(Nc4ccc(C(=O)NC5CCN(c6ccc(C7CCC(=O)NC7=O)cc6)CC5)cc4)nc4[nH]ccc34)cn2)C1 (stereo not shown) [Compound 46, 4-((4-(1-(3-(cyanomethyl)-1-(ethylsulfonyl)azetidin-3-yl)-1H-pyrazol-4-yl)-7H-pyrrolo[2,3-d]pyrimidin-2-yl)amino)-N-(1-(4-(2,6-dioxopiperidin-3-yl)phenyl)piperidin-4-yl)benzamide] | 9.25 nM | – | 98 % remaining | 20 % remaining | – | – | 119 % remaining |
| CCS(=O)(=O)N1CC(CC#N)(n2cc(-c3nc(Nc4ccc(C(=O)N5CCC(CN6CCN(c7ccc(C8CCC(=O)NC8=O)cc7)CC6)CC5)cc4)nc4[nH]ccc34)cn2)C1 (stereo not shown) [Compound 49, 2-(3-(4-(2-((4-(4-((4-(4-(2,6-dioxopiperidin-3-yl)phenyl)piperazin-1-yl)methyl)piperidine-1-carbonyl)phenyl)amino)-7H-pyrrolo[2,3-d]pyrimidin-4-yl)-1H-pyrazol-1-yl)-1-(ethylsulfonyl)azetidin-3-yl)acetonitrile] | 4 nM | 199 | 59 % remaining | 13 % remaining | 11% | 74% | – |
| CCS(=O)(=O)N1CC(CC#N)(n2cc(-c3nc(Nc4ccc(C(=O)N5CCC6(CC5)CCN(c5ccc(C7CCC(=O)NC7=O)cc5)CC6)cc4)nc4[nH]ccc34)cn2)C1 (stereo not shown) [Compound 50, 2-(3-(4-(2-((4-(9-(4-(2,6-dioxopiperidin-3-yl)phenyl)-3,9-diazaspiro[5.5]undecane-3-carbonyl)phenyl)amino)-7H-pyrrolo[2,3-d]pyrimidin-4-yl)-1H-pyrazol-1-yl)-1-(ethylsulfonyl)azetidin-3-yl)acetonitrile] | 9 nM | 202 | 85 % remaining | 11 % remaining | 28% | 137% | – |
| CCS(=O)(=O)N1CC(CC#N)(n2cc(-c3nc(Nc4ccc(C(=O)N5CCC6(CCN(c7ccc(C8CCC(=O)NC8=O)cc7)CC6)C5)cc4)nc4[nH]ccc34)cn2)C1 (stereo not shown) [Compound 52, 2-(3-(4-(2-((4-(8-(4-(2,6-dioxopiperidin-3-yl)phenyl)-2,8-diazaspiro[4.5]decane-2-carbonyl)phenyl)amino)-7H-pyrrolo[2,3-d]pyrimidin-4-yl)-1H-pyrazol-1-yl)-1-(ethylsulfonyl)azetidin-3-yl)acetonitrile] | 9 nM | 180 | 126 % remaining | 16 % remaining | 27% | 72% | – |
| CCS(=O)(=O)N1CC(CC#N)(n2cc(-c3nc(Nc4ccc(C(=O)NCCCN5CC6CCC(C5)N6c5ccc(C6CCC(=O)NC6=O)cc5)cc4)nc4[nH]ccc34)cn2)C1 (stereo not shown) [Compound 55, 4-((4-(1-(3-(cyanomethyl)-1-(ethylsulfonyl)azetidin-3-yl)-1H-pyrazol-4-yl)-7H-pyrrolo[2,3-d]pyrimidin-2-yl)amino)-N-(3-(8-(4-(2,6-dioxopiperidin-3-yl)phenyl)-3,8-diazabicyclo[3.2.1]octan-3-yl)propyl)benzamide] | 596 nM | 149 | 113 % remaining | 19 % remaining | 44% | 75% | – |
